Measurements taken from US10004803B2, “Low, immune enhancing, dose mtor inhibitors and uses thereof” (Novartis AG, priority 2013, dated 2018).
Where “and” joins values, the source holds several entries; their conditions need not be identical. Equal entries are not always repeated. Where two headings read alike, the source gives them in different places. Marks after values point to notes of the source that are not given here.

How the values were obtained:
mTOR = mTOR (Homo sapiens, UniProt P42345); conditions: low concentration; Serra et al., 2008; cited from earlier work
PI3K/mTOR = conditions: relatively higher concentrations; Serra et al., 2008; cited from earlier work
[1] = Adverse event assessment in elderly volunteers; assay type: in vivo, human; conditions: for Treatment-related AEs: Total AE(s): N = 53
Procedure: Adverse event assessment and blood collection for hematologic and biochemical safety assessments were performed during study visits. Adverse event information was also collected in diaries that subjects filled out at home during the 6 weeks they were on study drug. Data on all adverse events were collected from the time of informed consent until 30 days after the last study visit. Events were classified by the investigators as mild, moderate or severe.
The 4 SAEs were retinal hemorrhage of the left eye with subsequent blindness in a subject with normal platelet counts who had completed a 6 week course of 5 mg weekly RAD001 6 weeks previously; severe back pain in a subject treated with placebo and severe gastroenteritis in a subject treated with placebo. The most common RAD001-related AE was mouth ulcer that, in the majority of cases, was of mild severity.

[2] = system: PD-1 positive and PD-1 negative CD4 and CD8 T cells; design: species or system human; conditions: in vivo
H3N2 A/Victoria/210/2009 = assay: Hemagglutination inhibition (HI) titers after seasonal influenza vaccination in elderly volunteers pretreated with RAD001 or placebo; assay type: in vivo, human
Procedure: (§1) From December 2011 to April 2012, 218 elderly volunteers were enrolled in a randomized, observer-blind, placebo-controlled trial. The subjects were randomized to treatment arms using a validated automated randomization system with a ratio of RAD001 to placebo of 5:2 in each treatment arm. The treatment arms were:
(§2) The trial was observer-blind because the placebo in the RAD001 0.5 mg daily and 20 mg weekly cohorts differed slightly from the RAD001 tablets in those cohorts. […] The treatment duration for all cohorts was 6 weeks during which time subjects underwent safety evaluations in the clinic every 2 weeks. After subjects had been dosed for 4 weeks, RAD001 steady state levels were measured pre-dose and at one hour post dose. After completing the 6 week course of study drug, subjects were given a 2 week drug free break to reverse any possible RAD001-induced immunosuppression, and then were given a 2012 seasonal influenza vaccination (Agrippal®, Novartis Vaccines and Diagnostics, Siena, Italy) containing the strains H1N1 A/California/07/2009, H3N2 A/Victoria/210/2009, B/Brisbane/60/2008. Four weeks after influenza vaccination, subjects had serum collected for influenza titer measurements. Antibody titers to the 3 influenza vaccine strains as well as to 2 heterologous strains (A/H1N1 strain A/New Jersy/8/76 and A/H3N2 strain A/Victoria/361/11) were measured by standard hemagglutination inhibition assay (Kendal, A P et al. (1982) Concepts and procedures for laboratory-based influenza surveillance. Atlanta: Centers for Disease Control and Prevention B17-B35). Levels of IgG and IgM specific for the A/H1N1/California/07/2009 were measured in serum samples taken before and 4 weeks after influenza vaccination as described previously (Spensieri, F. et al. (2013) Proc. Natl. Acad. Sci. USA 110:14330-14335). Results were expressed as fluorescence intensity.
(§3) The primary analysis of geometric mean titer ratios was done using a normal Bayesian regression model with non-informative priors. This model was fitted to each antibody titer on the log scale. The primary outcome in each model was the Day 84 measurement. The Day 63 measurement was included in the outcome vector. The model fitted using SAS 9.2 proc mixed with the prior statement. The covariance structure of the matrix was considered as unstructured (option type=UN). A flat prior was used. For the secondary analysis of seroconversion rates, logistic regression was used.
(§4) The ability of RAD001 to improve immune function in elderly volunteers was evaluated by measuring the serologic response to the 2012 seasonal influenza vaccine. The hemagglutination inhibition (HI) geometric mean titers (GMT) to each of the 3 influenza vaccine strains at baseline and 4 weeks after influenza vaccination are provided in Table 4. The primary analysis variable was the HI GMT ratio (4 weeks post vaccination/baseline). […] This endpoint was chosen because a 1.2-fold increase in the influenza GMT ratio induced by the MF-59 vaccine adjuvant was associated with a decrease in influenza illness (Iob, A et al. (2005) Epidemiol Infect 133:687-693).
(§5) Rates of seroconversion 4 weeks after influenza vaccination were also evaluated. Seroconversion was defined as the change from a negative pre-vaccination titer (i.e., HI titer <1:10) to post-vaccination HI titer≥1:40 or at least 4-fold increase from a non-negative (≥1:10) pre-vaccination HI titer.

[3] = system: H1N1 A/California/07/2009; assay: as above; assay type: in vivo, human
Procedure: as §1, §2, §3, §4, §5

B/Brisbane/60/2008 = assay: as above; assay type: in vivo, human
Procedure: as §1, §2, §3, §4, §5

[4] = in vivo
[5] = system: A/H3N2 strain A/Victoria/361/11; assay: HI titers / seroconversion to heterologous influenza strain not contained in the vaccine; assay type: in vivo, human; conditions: for Percentage of subjects who seroconvert to heterologous strain 4 weeks after seasonal influenza vaccination: A/H3N2 strain: A/Victoria/361/11
clinical = conditions: human, in vivo
[6] = system: 3 influenza vaccine strains (H1N1, H3N2 and B); assay: Primary endpoint: HI GMT increase relative to placebo in at least 2 out of 3 influenza vaccine strains; assay type: in vivo, human; conditions: for primary endpoint (>=1.2-fold GMT increase relative to placebo in at least 2 out of 3 vaccine strains): ITT population
Procedure: as §4
Elderly volunteers >=65 years of age were randomized to one of the 3 RAD001 treatment groups (50 subjects per arm) or placebo (20 subjects per arm). Subjects were treated with study drug for 6 weeks, given a 2 week break, and then received influenza (Aggrippal, Novartis) and pneumoccal (Pneumovax 23, Merck), vaccinations. Response to influenza vaccination was assessed by measuring the geometric mean titers (GMTs) by hemagglutination inhibition assay to the 3 influenza strains (H1N1, H3N2 and B influenza subtypes) in the influenza vaccine 4 weeks after vaccination. The primary endpoints of the study were (1) safety and tolerability and (2) a 1.2 fold increase in influenza titers as compared to placebo in ⅔ of the influenza vaccine strains 4 weeks after vaccination. This endpoint was chosen because a 1.2 fold increase in influenza titers is associated with a decrease in influenza illness post vaccination, and therefore is clinically relevant. […] The pneumococcal vaccine contains antigens from 23 pneumococcal serotypes. Antibody titers to 7 of the serotypes were measured in our subjects.

[7] = system: A/H1N1/California/07/2009; assay: Anti-influenza IgG and IgM levels in serum before and 4 weeks after vaccination; assay type: in vivo, human; conditions: all p values >0.05 by Kruskal-Wallis rank sum test
Procedure: as §2, with “After completing the 6 week course of study drug, subjects were given a 2 week drug free break to reverse any possible RAD001-induced immunosuppression, and then were given a 2012 seasonal influenza vaccination (Agrippal®, Novartis Vaccines and Diagnostics, Siena, Italy) containing the strains H1N1 A/California/07/2009, H3N2 A/Victoria/210/2009, B/Brisbane/60/2008. Four weeks after influenza vaccination, subjects had serum collected for influenza titer measurements.” left out

[8] = system: A/H1N1 strain A/New Jersey/8/76; assay type: in vivo, human; conditions: for Percentage of subjects who seroconvert to heterologous strain 4 weeks after seasonal influenza vaccination: A/H1N1 strain: A/NewJersey/8/76
influenza = conditions: cited from earlier work
[9] = cited from earlier work
[10] = Intention to Treat Population, 0.5 mg
[11] = Intention to Treat Population, 5 mg
[12] = Intention to Treat Population, 20 mg
[13] = Subjects with Baseline Titers <=40, 0.5 mg
[14] = Subjects with Baseline Titers <=40, 5 mg
[15] = Subjects with Baseline Titers <=40, 20 mg

Compound: Cn1c(=O)n(-c2ccc(C(C)(C)C#N)cc2)c2c3cc(-c4cnc5ccccc5c4)ccc3ncc21 [BEZ235, 2-methyl-2-[4-(3-methyl-2-oxo-8-quinolin-3-yl-2,3-dihydro-imidazo[4,5-c]quinolin-1-yl)-phenyl]-propionitrile]
- concentration at which mTOR inhibition predominates (mTOR): less than 100 nmol/L
- concentration giving dual PI3K/mTOR inhibition (PI3K/mTOR): approximately 500 nmol/L

Compound: CO[C@H]1C[C@@H]2CC[C@@H](C)[C@@](O)(O2)C(=O)C(=O)N2CCCC[C@H]2C(=O)O[C@H]([C@H](C)C[C@@H]2CC[C@@H](OCCO)[C@H](OC)C2)CC(=O)[C@H](C)/C=C(\C)[C@@H](O)[C@@H](OC)C(=O)[C@H](C)C[C@H](C)/C=C/C=C/C=C/1C [RAD001, (1R,9S,12S,15R,16E,18R,19R,21R,23 S,24E,26E,28E,30S,32S,35R)-1,18-dihydroxy-12-{(1R)-2-[(1 S,3R,4R)-4-(2-hydroxyethoxy)-3-methoxycyclohexyl]-1-methylethyl}-19,30-dimethoxy-15,17,21,23,29,35-hexamethyl-11,36-dioxa-4-aza-tricyclo[30.3.1.04,9]hexatriaconta-16,24,26,28-tetraene-2,3,10,14,20-pentaone]
- Treatment-related AEs: Total AE(s) ([1]; RAD001 0.5 mg daily): 35 n (%)
- Treatment-related AEs: Total AE(s) ([1]; RAD001 5 mg weekly): 46 n (%)
- Treatment-related AEs: Total AE(s) ([1]; RAD001 20 mg weekly): 109 n (%)
- deaths during the study ([1]; elderly volunteers, 6 week treatment): No deaths occurred
- severe AEs assessed as related to RAD001 ([1]; mouth ulcers in a subject treated with 20 mg weekly): Only one severe AE
- decrease in PD-1-positive CD4 T cells as compared to the placebo cohort [2]: −37.1-−28.5%
- decrease in PD-1-positive CD8 T cells as compared to the placebo cohort [2]: −43.3-−38.5%
- decrease in PD-1 positive CD4 T cells compared to placebo cohort [2]: 30.2% and 32.7%
- decrease in PD-1 positive CD8 T cells compared to placebo cohort [2]: 37.4% and 41.4%
- increase in PD-1-negative CD4 T cells as compared to the placebo cohort [2]: 3.0-4.9%
- percentage of CD4 PD-1 positive T cells versus baseline [2]: decreased from baseline
- percentage of CD8 PD-1 positive cells versus baseline [2]: decreased from baseline
- significant differences in the percentages of naïve lymphocytes versus placebo [2]: not detected
- Percent of subjects with seroconversion to influenza 4 weeks after vaccination (H3N2 A/Victoria/210/2009; [10]): 27%
- Percent of subjects with seroconversion to influenza 4 weeks after vaccination (H3N2 A/Victoria/210/2009; [11]): 24%
- Percent of subjects with seroconversion to influenza 4 weeks after vaccination (H3N2 A/Victoria/210/2009; [12]): 25%
- Percent of subjects with seroconversion to influenza 4 weeks after vaccination (H3N2 A/Victoria/210/2009; [13]): 64%
- Percent of subjects with seroconversion to influenza 4 weeks after vaccination (H3N2 A/Victoria/210/2009; [14]): 53%
- Percent of subjects with seroconversion to influenza 4 weeks after vaccination (H3N2 A/Victoria/210/2009; [15]): 71%
- Percent of subjects with seroconversion to influenza 4 weeks after vaccination [3, 10]: 27%
- Percent of subjects with seroconversion to influenza 4 weeks after vaccination [3, 11]: 27%
- Percent of subjects with seroconversion to influenza 4 weeks after vaccination [3, 12]: 17%
- Percent of subjects with seroconversion to influenza 4 weeks after vaccination [3, 13]: 42%
- Percent of subjects with seroconversion to influenza 4 weeks after vaccination [3, 14]: 45%
- Percent of subjects with seroconversion to influenza 4 weeks after vaccination [3, 15]: 36%
- Percent of subjects with seroconversion to influenza 4 weeks after vaccination (B/Brisbane/60/2008; [10]): 27%
- Percent of subjects with seroconversion to influenza 4 weeks after vaccination (B/Brisbane/60/2008; [11]): 22%
- Percent of subjects with seroconversion to influenza 4 weeks after vaccination (B/Brisbane/60/2008; [12]): 19%
- Percent of subjects with seroconversion to influenza 4 weeks after vaccination (B/Brisbane/60/2008; [13]): 40* Percent
- Percent of subjects with seroconversion to influenza 4 weeks after vaccination (B/Brisbane/60/2008; [14]): 33%
- Percent of subjects with seroconversion to influenza 4 weeks after vaccination (B/Brisbane/60/2008; [15]): 28%
- trough level of study dosing regimens relative to approved transplant and oncology regimens ([4]; human): 3-20 fold lower
- average RAD001 trough level [4]: below detection limits
- increase in HI GMT ratio for heterologous strain as compared to placebo ([5]; 4 weeks after vaccination): higher
- Percentage of subjects who seroconvert to heterologous strain 4 weeks after seasonal influenza vaccination ([5]; RAD001 0.5 mg daily): 38%
- Percentage of subjects who seroconvert to heterologous strain 4 weeks after seasonal influenza vaccination ([5]; RAD001 5 mg weekly): 39%*
- Percentage of subjects who seroconvert to heterologous strain 4 weeks after seasonal influenza vaccination ([5]; RAD001 20 mg weekly): 40%*
- H3N2 heterologous strain seroconversion rate ([5]; pooled RAD001 cohorts, versus 20% for placebo (p=0.007)): 39%
- concentration at 4 weeks (clinical; 0.5 mg daily): 0.9 ng/mL
- concentration at 4 weeks (clinical; 5 mg weekly): < 0.3 ng/mL
- concentration at 4 weeks (clinical; 20 mg weekly): 0.7 ng/mL
- primary endpoint (>=1.2-fold GMT increase relative to placebo in at least 2 out of 3 vaccine strains) ([6]; 0.5 mg daily or 5 mg weekly): met the GMT primary endpoint
- primary endpoint (>=1.2-fold GMT increase relative to placebo in at least 2 out of 3 vaccine strains) ([6]; 20 mg weekly): but not higher dose (20 mg weekly) cohort met the primary endpoint
- RAD001 concentration versus increase in titer to each influenza vaccine strain ([6]; RAD001 concentration 1 hour post dose after 4 weeks dosing): inverse exposure/response relationship
- increase in influenza titers in subjects with low baseline titers versus ITT population ([6]; subset with baseline influenza titers <=1:40): greater RAD001-associated increase in titers
- change from baseline to 4 weeks post vaccination in anti-H1N1 influenza IgG and IgM levels versus placebo [7]: No significant difference
- increase in HI GMT ratio for heterologous strain as compared to placebo ([8]; 4 weeks after vaccination): higher
- Percentage of subjects who seroconvert to heterologous strain 4 weeks after seasonal influenza vaccination ([8]; RAD001 5 mg weekly): 16%
- Percentage of subjects who seroconvert to heterologous strain 4 weeks after seasonal influenza vaccination ([8]; RAD001 20 mg weekly): 8%

Compound: CO[C@H]1C[C@@H]2CC[C@@H](C)[C@@](O)(O2)C(=O)C(=O)N2CCCC[C@H]2C(=O)O[C@H]([C@H](C)C[C@@H]2CC[C@@H](O)[C@H](OC)C2)CC(=O)[C@H](C)/C=C(\C)[C@@H](O)[C@@H](OC)C(=O)[C@H](C)C[C@H](C)/C=C/C=C/C=C/1C [rapamycin]
- response to influenza vaccination (influenza; elderly mice, 6 weeks of treatment): improved response to influenza vaccination
- serologic response to influenza as compared to placebo (influenza; mice vaccinated against influenza in the presence of rapamycin): broader serologic response to influenza
- lifespan ([9]; mice): extend lifespan
- spontaneous physical activity ([9]; old mice): increases spontaneous physical activity
